The results in this text go back to PubChem BioAssay (NCI).

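Tested at 5 concentrations; 48 h exposure; 96-well plates; endpoints linearly interpolated, else capped at highest concentration. Definition used: TGI = concentration required for complete inhibition of growth.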

The subject of one test is BT-549 breast. The test is described as follows: growth of human tumour cells (NCI), 48 h.
In the case of `CCOC(=O)C1(C/C=C/CBr)Cc2ccccc2C1=O` (stereo unspecified), the TGI turned out to be 8.86 µM.
Still for that read-out and setting: the figure for `COc1ccc(-c2c(C#N)c(-c3ccc(C)cc3)n(NS(=O)(=O)c3ccc(C)cc3)c(=O)c2C#N)cc1` is more than 100 µM; for `Clc1ccccc1C(SCc1ccccc1)SCc1ccccc1` it is more than 100 µM.

Another test has as its system COLO 205 colon. The test is described as follows: growth of human tumour cells (NCI), 48 h.
`COc1ccc(-c2cc(O)c3nc4ccccc4n3c2)cc1` came in with a TGI of more than 100 µM.
For the compound `C[C@@H]1CC[C@]2(C(=O)O)CC[C@]3(C)C(=CC[C@@H]4[C@@]5(C)CC[C@H](O)C(C)(C)[C@@H]5CC[C@]43C)[C@@H]2[C@]1(C)O`, the TGI worked out at 30 µM.
In turn, `CC(C)=CCc1c2c(c3occ(-c4ccc(O)cc4)c(=O)c3c1O)CC(C(C)(C)O)O2` (stereo unspecified) had a TGI of 30 µM.
Regarding `CC1(C)N=[N+]([O-])C1(C)C`, the TGI is more than 100 µM.
On the same count and under the same terms, to `COc1ccc(C2CC(c3c(O)ccc4ccccc34)=NN2C(C)=O)cc1OC` (stereo unspecified) belongs 42.8 µM; to `C1CN(c2nc3c(nnc4nc(N5CCOCC5)sc43)s2)CCO1`, more than 100 µM.
Compound `NC(N)=N/N=C/c1c(-c2ccc(N)cc2)nc2sccn12` had a TGI of 57.8 µM.
`CN1C(=O)C2CCC(=O)N2c2cccnc21` (stereo unspecified) had a TGI of more than 100 µM.
In the case of `CCOC(=O)CSc1c(C(=O)OCC)c(=O)n(-c2ccccc2)c(=S)n1-c1ccccc1`, the TGI was more than 100 µM.
In turn, `C=CC1(C)CCC2C(=CCC3C2(C)CC(O)C(O)C3(C)COC2OC(C(=O)O)C(O)C(O)C2O)C1` (stereo unspecified) (tested in a mixture with another compound) registered a TGI of more than 100 µM.
`COCO[C@@H]1C[C@H]2C(=O)Nc3ccccc3C(=O)N2C1` registered a TGI of more than 100 µM.
`O=c1c2cc([N+](=O)[O-])cnc2sn1-c1ccc([N+](=O)[O-])cc1` displayed a TGI of 37.3 µM.
`Cc1ccc(C(=O)O)cc1S(=O)(=O)Nn1cnc2ccc(S(=O)(=O)Nc3ccccc3C(=O)O)cc2c1=O` came in with a TGI of more than 100 µM.
For `S=C1Nc2ccccc2SC1c1ccccc1` (stereo unspecified), the TGI was more than 100 µM.
`CN(C)C(=O)O/N=C1/C(c2c(O)[nH]c3ccccc23)=Nc2ccccc21` showed a TGI of more than 100 µM.
Still for that read-out and setting: the figure for `Cc1cc(Cc2cc(C)c(N)cc2N)c(N)cc1N` is more than 100 µM.
As to `COC(=O)c1ccccc1CC1Cc2ccc3c(c2C1=O)CCCC3` (stereo unspecified), the TGI was more than 100 µM.
`O=C1/C(=C\c2ccccc2)C(NC2CCCCC2)c2ccccc21` (stereo unspecified) gave a TGI of 3.22 µM.
Compound `CCOC(=O)C1(C/C=C/CBr)Cc2ccccc2C1=O` (stereo unspecified) yielded a TGI of 11.7 µM.
In turn, `COc1ccc(-c2c(C#N)c(-c3ccc(C)cc3)n(NS(=O)(=O)c3ccc(C)cc3)c(=O)c2C#N)cc1` showed a TGI of more than 100 µM.
`Clc1ccccc1C(SCc1ccccc1)SCc1ccccc1` displayed a TGI of more than 100 µM.

The test system of another test is EKVX NSCLC. Description: growth of human tumour cells (NCI), 48 h.
As to `COc1ccc(-c2cc(O)c3nc4ccccc4n3c2)cc1`, the TGI was more than 100 µM.
Turning to `C[C@@H]1CC[C@]2(C(=O)O)CC[C@]3(C)C(=CC[C@@H]4[C@@]5(C)CC[C@H](O)C(C)(C)[C@@H]5CC[C@]43C)[C@@H]2[C@]1(C)O`, the TGI came out at 33 µM.
With `CC1(C)N=[N+]([O-])C1(C)C`, the TGI was more than 100 µM.
Still for that read-out and setting: the figure for `C1CN(c2nc3c(nnc4nc(N5CCOCC5)sc43)s2)CCO1` is more than 100 µM; for `NC(N)=N/N=C/c1c(-c2ccc(N)cc2)nc2sccn12` it is 61.1 µM; for `CN1C(=O)C2CCC(=O)N2c2cccnc21` (stereo unspecified) it is more than 100 µM.
The compound `CCOC(=O)CSc1c(C(=O)OCC)c(=O)n(-c2ccccc2)c(=S)n1-c1ccccc1` had a TGI of more than 100 µM.
Consider `C=CC1(C)CCC2C(=CCC3C2(C)CC(O)C(O)C3(C)COC2OC(C(=O)O)C(O)C(O)C2O)C1` (stereo unspecified) (tested in a mixture with another compound), for which the TGI was more than 100 µM.
Compound `COCO[C@@H]1C[C@H]2C(=O)Nc3ccccc3C(=O)N2C1` displayed a TGI of more than 100 µM.
Same read-out and setting: to `O=c1c2cc([N+](=O)[O-])cnc2sn1-c1ccc([N+](=O)[O-])cc1` belongs more than 100 µM; to `Cc1ccc(C(=O)O)cc1S(=O)(=O)Nn1cnc2ccc(S(=O)(=O)Nc3ccccc3C(=O)O)cc2c1=O`, more than 100 µM.
Turning to `S=C1Nc2ccccc2SC1c1ccccc1` (stereo unspecified), the TGI is more than 100 µM.
On to `CN(C)C(=O)O/N=C1/C(c2c(O)[nH]c3ccccc23)=Nc2ccccc21`, for which the TGI is 33.5 µM.
Same read-out and setting: to `Cc1cc(Cc2cc(C)c(N)cc2N)c(N)cc1N` belongs more than 100 µM; to `COC(=O)c1ccccc1CC1Cc2ccc3c(c2C1=O)CCCC3` (stereo unspecified), more than 100 µM; to `O=C1/C(=C\c2ccccc2)C(NC2CCCCC2)c2ccccc21` (stereo unspecified), 11.2 µM.
On to `CCOC(=O)C1(C/C=C/CBr)Cc2ccccc2C1=O` (stereo unspecified), for which the TGI was determined as 28.7 µM.
Regarding `COc1ccc(-c2c(C#N)c(-c3ccc(C)cc3)n(NS(=O)(=O)c3ccc(C)cc3)c(=O)c2C#N)cc1`, the TGI was more than 100 µM.
In turn, `Clc1ccccc1C(SCc1ccccc1)SCc1ccccc1` displayed a TGI of more than 100 µM.

For a further test, the system named is HCC-2998 colon. Description: growth of human tumour cells (NCI), 48 h.
Take `C[C@@H]1CC[C@]2(C(=O)O)CC[C@]3(C)C(=CC[C@@H]4[C@@]5(C)CC[C@H](O)C(C)(C)[C@@H]5CC[C@]43C)[C@@H]2[C@]1(C)O`: the TGI was determined as 29.2 µM.
Same read-out and setting: the figure for `CC(C)=CCc1c2c(c3occ(-c4ccc(O)cc4)c(=O)c3c1O)CC(C(C)(C)O)O2` (stereo unspecified) is 23.2 µM; for `CC1(C)N=[N+]([O-])C1(C)C` it is more than 100 µM; for `COc1ccc(C2CC(c3c(O)ccc4ccccc34)=NN2C(C)=O)cc1OC` (stereo unspecified) it is 54.3 µM.
Consider `CN1C(=O)C2CCC(=O)N2c2cccnc21` (stereo unspecified), for which the TGI was more than 100 µM.
`C=CC1(C)CCC2C(=CCC3C2(C)CC(O)C(O)C3(C)COC2OC(C(=O)O)C(O)C(O)C2O)C1` (stereo unspecified) (tested in a mixture with another compound): the TGI is more than 100 µM.
Consider `O=c1c2cc([N+](=O)[O-])cnc2sn1-c1ccc([N+](=O)[O-])cc1`, for which the TGI is more than 100 µM.
`Cc1ccc(C(=O)O)cc1S(=O)(=O)Nn1cnc2ccc(S(=O)(=O)Nc3ccccc3C(=O)O)cc2c1=O` had a TGI of more than 100 µM.
In turn, `Cc1ccc(-c2n[nH]c(=O)n2N2C(=O)c3ccccc3C2=O)cc1` showed a TGI of more than 100 µM.
`CN(C)C(=O)O/N=C1/C(c2c(O)[nH]c3ccccc23)=Nc2ccccc21` showed a TGI of more than 100 µM.
Still for that read-out and setting: to `O=[N+]([O-])c1ccc2c(c1)c(OCc1ccccc1)nn2Cc1ccccc1` belongs more than 100 µM.
`COC(=O)c1ccccc1CC1Cc2ccc3c(c2C1=O)CCCC3` (stereo unspecified) gave a TGI of more than 100 µM.
The compound `CCOC(=O)C1(C/C=C/CBr)Cc2ccccc2C1=O` (stereo unspecified) gave a TGI of 21.3 µM.
For the compound `COc1ccc(-c2c(C#N)c(-c3ccc(C)cc3)n(NS(=O)(=O)c3ccc(C)cc3)c(=O)c2C#N)cc1`, the TGI was more than 100 µM.
`Clc1ccccc1C(SCc1ccccc1)SCc1ccccc1` came in with a TGI of more than 100 µM.

The next test relates to HOP-62 NSCLC. The test is described as follows: growth of human tumour cells (NCI), 48 h.
`COc1ccc(-c2cc(O)c3nc4ccccc4n3c2)cc1` displayed a TGI of more than 100 µM.
As to `CC(C)=CCc1c2c(c3occ(-c4ccc(O)cc4)c(=O)c3c1O)CC(C(C)(C)O)O2` (stereo unspecified), the TGI was determined as 33.6 µM.
On the same count and under the same terms, the figure for `COc1ccc(C2CC(c3c(O)ccc4ccccc34)=NN2C(C)=O)cc1OC` (stereo unspecified) is 94.4 µM.
Turning to `C1CN(c2nc3c(nnc4nc(N5CCOCC5)sc43)s2)CCO1`, the TGI is more than 100 µM.
For `NC(N)=N/N=C/c1c(-c2ccc(N)cc2)nc2sccn12`, the TGI was determined as 79 µM.
Consider `CN1C(=O)C2CCC(=O)N2c2cccnc21` (stereo unspecified), for which the TGI was more than 100 µM.
As to `CCOC(=O)CSc1c(C(=O)OCC)c(=O)n(-c2ccccc2)c(=S)n1-c1ccccc1`, the TGI was more than 100 µM.
On the same count and under the same terms, to `C=CC1(C)CCC2C(=CCC3C2(C)CC(O)C(O)C3(C)COC2OC(C(=O)O)C(O)C(O)C2O)C1` (stereo unspecified) (tested in a mixture with another compound) belongs more than 100 µM.
